Earlier results in patent EP1336411A1, “Compositions and methods for improving enzyme replacement therapy of lysosomal storage diseases” (Academisch Medisch Centrum bij de Universiteit van Amsterdam, priority 2002, dated 2003).

Biological target: alpha-Galactosidase A (Homo sapiens, UniProt P06280)
Conditions: read-out: apparent Km; artificial substrate 4-methylumbelliferyl-alpha-D-galactopyranoside; pH 4.6 (maximal activity)

Sequence of alpha-Galactosidase A (P06280 32-429): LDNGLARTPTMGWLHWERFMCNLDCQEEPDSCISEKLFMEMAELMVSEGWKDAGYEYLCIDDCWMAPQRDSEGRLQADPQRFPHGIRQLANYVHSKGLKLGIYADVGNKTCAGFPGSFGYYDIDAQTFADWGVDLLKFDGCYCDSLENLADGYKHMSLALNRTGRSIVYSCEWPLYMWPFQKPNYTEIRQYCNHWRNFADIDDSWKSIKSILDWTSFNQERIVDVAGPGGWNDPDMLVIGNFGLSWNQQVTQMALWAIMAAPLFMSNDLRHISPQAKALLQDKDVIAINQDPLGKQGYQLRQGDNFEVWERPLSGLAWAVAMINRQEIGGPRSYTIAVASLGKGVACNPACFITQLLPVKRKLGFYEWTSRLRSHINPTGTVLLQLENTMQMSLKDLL

Km: 2000 µM
SMILES: Cc1cc(=O)oc2cc(O[C@H]3O[C@H](CO)[C@H](O)[C@H](O)[C@H]3O)ccc12 [4-methylumbelliferyl-alpha-D-galactopyranoside]
